Columns and labels:
[1] = tested on: metastatic tumor tissue (tumor cells and immune cells) of a patient with ovarian cancer in PVDF capsule tubes; assay: IO-FIVE capsule test in nude mice, ovarian cancer patient of Example 3 (CTG cell viability and FACS, day 10); format: in vivo, human; conditions: tumor sample after addition of autologous TIL cells (C/T 8)
Description: Experimental Animals, Sample Collection, and Cell Processing were the Same as in Example 1.
The following was collected for cell phenotyping identification: a single cell suspension of patient tumor tissue samples before purification, tumor cells after purification, enriched immune cells (containing CD3+ T cells) eluted from the column, and a cell suspension in which tumor cells after purification and immune cells were mixed in a certain ratio (1.5:1 to 15:1), to yield a final cell count of 0.1 to 0.3 million cells. […]
Cells within the Tubing The basic operational steps were the same as those in Example 1. According to the data analyzed by flow cytometry, the CD45− tumor cells and CD3+ T cells were mixed in a certain ratio (about 1.5:1-15:1). […]
3-21 days after administration (day 10 here), the mice were euthanized, and the PVDF tubes were removed. Cell viability was quantified by the CellTiter-Glo chemiluminescence method, and the relative ratio and basic phenotype of tumor cells and immune cells in PVDF tubes were detected by flow cytometry.
Adjusted to the viability value of the cells in the control vehicle group (as shown in FIG. 9), the proliferation viability of all cells in the drug administration group was calculated, and then the efficacy of the drug to be tested was calculated. […]

[2] = tested on: patient with ovarian cancer; conditions: monotherapy
[3] = tested on: peripheral blood tumor cells and immune cells of acute myeloid leukemia (AML) patients in PVDF capsule tubes; assay: IO-FIVE capsule test in nude mice, two AML patients #123 and #124 of Example 5 (CTG cell viability and FACS, day 14); format: in vivo, human
Description: BALB/c Nude mice (available from Jiangsu Jicui Yaokang Biotechnology Co. Ltd.) aged 6-8 weeks were ordered from the supplier and kept in the animal house at SPF level. The animals were adaptively kept for at least 3 days before the start of the experiment.
Fresh peripheral blood samples from two acute myeloid leukemia (AML) patients (in the acute phase of AML) were collected and placed in anticoagulant tubes and transported to the central laboratory by cold chain (2-8° C.) within a short period of time.
The peripheral blood samples of different patients were transferred into the biological safety cabinet. The cells were centrifuged using a gradient centrifugation gel (available from SIGMA) with a density of 1.077 g/mL at room temperature. […] After resuspension in cell culture medium (available from Gibco), the cells were counted. […]
3-21 days after administration (e.g., day 14 here), the mice were euthanized, and the PVDF tubes were removed. Cell viability was quantified by the CellTiter-Glo chemiluminescence method. Changes in the relative ratio and phenotype of tumor cells and immune cells in PVDF tubes were detected by flow cytometry. Bioinformatic changes of tumor cells and immune cells in PVDF capsule tubes of clinical samples at day 0 or day 10 were detected by molecular biological methods (RNA sequencing, and DNA sequencing technology, etc.). […]

[4] = tested on: peripheral blood and/or bone marrow tumor cells and immune cells of acute myeloid leukemia (AML) patients in PVDF capsule tubes; assay: IO-FIVE capsule test in nude mice, three AML patients #128, #129, #131 of Example 6 (CTG cell viability and FACS, day 14); format: in vivo, human
Description: Fresh peripheral blood samples and/or bone marrow from three acute myeloid leukemia (AML) patients (in the acute phase) were collected and placed in anticoagulant tubes, and transported to the central laboratory by cold chain (2-8° C.) within a short period of time.
Quality control analysis was performed according to the data obtained by flow cytometry so as to meet the requirement that the ratio of CD8+ T cells was at least more than 0.5% (the required minimum concentration), and the tumor cells (CD45^low/+ SSC-A^mid/hi CD33+/CD38+ cells) and the CD45^high SSC-A^lowCD3+ T lymphocytes were uniformly mixed according to a certain ratio (C/T (CD38+Cancer/CD3+T)=1.5:1 to 15:1), and then filled into PVDF tubes and sealed.
Cell viability as measured by luminescence (CTG method) on day 14: according to the viability value of the cells in the control group (as shown in FIG. 21), the proliferation viability of all the cells in the drug administration group was calculated, and then the efficacy of the drug was calculated.
Flow cytometry detection on day14: the relative ratio of tumor cells and immune cells in PVDF tubes was detected by flow cytometry. The differences between tumor cells and immune cells in the drug group and the control group were compared (as shown in FIG. 22). The results were analyzed by Flowjo software.

Compound	viability of total cells / overall tumor viability (CTG) [1]	clinical response of the patient [2]	response (cell viability by CTG, FACS) ([3]; patient #123, C/T about 15:1, CD8+ T 0.21%)	response / inhibitory effect on cell viability (CTG) compared with control vehicle ([3]; patient #124, C/T about 6:1)	proportion of cancer blasts in the capsules (FACS) ([4]; patient #128)	proportion of cancer blasts in the capsules (FACS) ([4]; patient #129)	AML blasts and CD8+ TILs (FACS) ([4]; patient #131)	response (cell viability, CTG) ([4]; patient #131, C/T 4.5)
NC(=O)c1cccc2cn(-c3ccc([C@@H]4CCCNC4)cc3)nc12 [PARP inhibitor, Niraparib]	neither PD1 antibody nor PARP inhibitor mono-therapy could inhibit the overall tumor viability	poor clinical response	–	–	–	–	–	–
Daratumumab [CD38 antibody]	–	–	did not respond	great response	cancer blasts still occupied a dominant proportion in the capsules	cancer blasts still occupied a dominant proportion in the capsules	less AML blasts and more CD8+ TILs	positive response

— patent US20240076380A1, “DEVICE AND METHODS FOR RAPIDLY SCREENING AND TREATING CLINICAL CANCER PATIENTS WITH IMMUNOREGULATORY DRUGS” (Shanghai Lide Biotech Co., Ltd., priority 2022, published 2024)
